Experimental data as given in the NIST ThermoML archive (doi:10.1016/j.fluid.2011.10.009).
Numbers after ± are expanded uncertainties. Blank lines part the entries; values can stand above or below the compound they belong to.

Conditions: Liquid

vapor or sublimation pressure (353.3 K, Closed cell (Static) method): 101.3 ± 1 kPa
SMILES: c1ccccc1 [benzene]

vapor or sublimation pressure (423.8 K, Ebulliometric method (Recirculating still)): 101.3 ± 1 kPa
SMILES: CCCCCCCCC [nonane]

The next lines start with the compound.

SMILES: Cc1cccc(C)c1 [1,3-dimethylbenzene]
vapor or sublimation pressure (412 K, Ebulliometric method (Recirculating still)): 101.3 ± 1 kPa

SMILES: Cc1ccc(C)cc1 [1,4-dimethylbenzene]
vapor or sublimation pressure (411.4 K, Ebulliometric method (Recirculating still)): 101.3 ± 1 kPa

SMILES: C1CCCCC1 [cyclohexane]
vapor or sublimation pressure (353.7 K, Ebulliometric method (Recirculating still)): 101.3 ± 1 kPa

SMILES: Cc1ccccc1 [toluene]
vapor or sublimation pressure (383.4 K, Closed cell (Static) method): 101.3 ± 1 kPa
vapor or sublimation pressure (383.8 K, Closed cell (Static) method): 101.3 ± 1 kPa
